Here are results for 14 molecules from ChEMBL document CHEMBL5528001, “Synthetic product-based approach toward potential antileishmanial drug development” (Eur J Med Chem, 2024).

For orientation: IC50 means the concentration at which inhibition is half-maximal. One may read the EC50 as the concentration at which the effect is half-maximal. One may read the CC50 as the concentration that lowers cell viability or growth by half.

Series [1] concerns Leishmania major. Description: Antileishmanial activity against Leishmania major promastigotes assessed as reduction in parasite growth incubated for 48 hrs by MTT assay. In kind it is functional, organism-based. In general terms: Tetrazolium assays rely on reduction of a dye to a coloured formazan, in cell work by metabolically active cells.
Series [2] can be described thus: Cytotoxicity against mouse J774.A1 cells assessed as reduction in cell viability by MTT assay. In kind it is toxicity, cell-based.
For series [3], the system named is Leishmania donovani. Description: Antileishmanial activity against Leishmania donovani promastigotes assessed as inhibition of parasite growth. In kind it is functional, organism-based.
For series [4], the system named is Leishmania donovani. Description: Antileishmanial activity against Leishmania donovani amastigotes assessed as inhibition of parasite growth. In kind it is functional, organism-based.
Series [5] deals with Leishmania major. Description: Antileishmanial activity against Leishmania major MHOM/IN/95/9515 amastigotes assessed as reduction in cell growth. In kind it is functional, organism-based.
The test system of series [6] is Leishmania donovani. Kind of series: Antileishmanial activity against Leishmania donovani MHOM/SD/62/1S amastigotes assessed as reduction in cell growth. In kind it is functional, organism-based.
The subject of series [7] is Leishmania infantum. Description: Antileishmanial activity against Leishmanial infantum amastigotes assessed as inhibition of parasite growth measured after 72 hrs by MTT assay. In kind it is functional, organism-based.
A further series has as its system HepG2. Description: Cytotoxicity against human HepG2 cells assessed as growth inhibition of cells measured for 48 hrs by MTT assay. The conditions noted are these: HepG2, 48 h. In kind it is functional, cell-based.
For series [8], the system named is Leishmania infantum. Description: Antileishmanial activity against Leishmania infantum promastigote assessed as inhibition of parasite growth after 72 hrs by MTT assay. In kind it is functional, organism-based.
Series [9] in a line: Cytotoxicity against mouse RAW264.7 cells assessed as reduction in cell viability measured after 48 hrs by MTT assay. In kind it is toxicity, cell-based.
Series [10] concerns Leishmania infantum. Kind of series: Antileishmanial activity against Leishmania infantum promastigote after 72 hrs by MTT assay. In kind it is functional, organism-based.
Series [11] relates to Leishmania infantum. Kind of series: Antileishmanial activity against Leishmania infantum MHOM/BR/1972/LD intracellular amastigotes infected in mouse J774A.1 macrophages cells assessed as reduction in parasite viability after 72 hrs by MTT based analysis. The conditions noted are these: J774.A1, 72 h. In kind it is functional, organism-based.
The subject of series [12] is Leishmania infantum. Description: Antileishmanial activity against Leishmania infantum promastigotes infected in BALB/c mouse macrophages assessed as reduction in parasite load in liver at 7.7 mg/kg, po administered twice as day for 5 days relative to control. The conditions noted are these: time 5 day. In kind it is functional. Also on record: scale not given: the % may be the effect or the level left.

Series [13] is described as follows: Cytotoxicity against mouse Peritoneal macrophages assessed as reduction in cell viability incubated for 24 hrs by MTT assay. In kind it is toxicity, cell-based, Peritoneal macrophage.
The test system of series [14] is Leishmania infantum. Kind of series: Antileishmanial activity against Leishmania infantum promastigotes infected in BALB/c mouse macrophages assessed as reduction in parasite load in spleen at 7.7 mg/kg, po administered twice as day for 5 days relative to control. In kind it is functional. Further details: scale not given: the % may be the effect or the level left. To be noted: time 5 day.

Series [15] in a line: Cytotoxicity against human WI-38 cells assessed as reduction in cell viability incubated for 48 hrs by MTT assay. In kind it is toxicity, cell-based.
Series [16] has as its system Leishmania infantum. Description: Antileishmanial activity against Leishmania infantum MHOM/FR/2008/LEM5700 infected in BALB/c mouse assessed as reduction of parasite burden in liver at 10 mg/kg, po administered for 5 days relative to control. To be noted: time 5 day. In kind it is functional. Also on record: scale not given: the % may be the effect or the level left.

Series [17] has as its system Leishmania infantum. Description: Antileishmanial activity against Leishmania infantum amastigotes infected in human THP-1 cells assessed as reduction in parasite growth. In kind it is functional, organism-based.
Series [18] in a line: Cytotoxicity against African green monkey Vero cells assessed as reduction in cell viability by MTT assay. In kind it is toxicity, cell-based, Chlorocebus sabaeus.
Series [19] concerns Leishmania donovani. Kind of series: Antileishmanial activity against Leishmania donovani amastigotes MHOM/SD/62/1S assessed as inhibition of cell growth measured after 48 hrs by resazurin dye based assay. In kind it is functional, organism-based. For orientation: The colour change of resazurin is a common sign of viable cells or microbes.
In series [20] the test system is Leishmania donovani. Description: Antileishmanial activity against Leishmania donovani promastigotes MHOM/SD/62/1S assessed as inhibition of cell growth measured after 48 hrs by resazurin dye based assay. In kind it is functional, organism-based.
Series [21] relates to Leishmania donovani. Kind of series: Antileishmanial activity against Leishmania donovani 9515 amastigotes assessed as inhibition of parasite growth incubated for 48 hrs by resazurin dye based assay. In kind it is functional, organism-based. To be noted: Leishmania donovani, 9515, 48 h.
In the next series the test system is Leishmania tropica. Description: Antileishmanial activity against Leishmania tropica MHOM/A7/1974/SAF-K27 assessed as reduction in parasite growth incubated for 48 hrs by Neubauer hemocytometer analysis. In kind it is functional, organism-based. The conditions noted are these: MHOM/A7/1974/SAF-K27, 48 h.
The subject of series [22] is Leishmania amazonensis. Description: Antileishmanial activity against Leishmania amazonensis promastigotes assessed as reduction in parasite viability after 72 hrs by CCK-8 assay. In kind it is functional, organism-based.
In the next series the test system is Leishmania braziliensis. Description: Antileishmanial activity against Leishmania braziliensis promastigotes assessed as reduction in parasite viability after 72 hrs by CCK-8 assay. In kind it is functional, organism-based.
Series [23] deals with Leishmania amazonensis. Kind of series: Antileishmanial activity against Leishmania amazonensis promastigotes assessed as reduction in parasite viability incubated for 48 hrs by MTT assay. In kind it is functional, organism-based.
For series [24], the system named is Leishmania donovani. Description: Antileishmanial activity against Leishmania donovani MHOM/IN/95/9515 assessed as reduction in parasite growth measured for 72 hrs by resazurin dye based analysis. In kind it is functional, organism-based. The conditions noted are these: MHOM/IN/95/9515, 72 h.
For series [25], the system named is Leishmania major. Description: Antileishmanial activity against Leishmania major MHOM/IR/-173 assessed as reduction in parasite viability measured for 48 hrs by alamar-blue dye based analysis. In kind it is functional, organism-based. To be noted: MHOM/IR/-173, 48 h.
A short description of series [26]: Selectivity index, ratio of CC50 for cytotoxicity against HEK293 cells to IC50 for antileishmanial activity against Leishmania major IR-173 promastigotes. In kind it is toxicity, cell-based. The conditions noted are these: human, read-out: Ratio CC50/IC50.
For series [27], the system named is Leishmania infantum. Description: Antileishmanial activity against Leishmania infantum LEM 3049 isolate promastigote assessed as reduction in parasite growth after 72 hrs by MTT assay. In kind it is functional, organism-based. The conditions noted are these: LEM 3049, 72 h.
Series [28] has as its system Leishmania amazonensis. Description: Antileishmanial activity against Leishmania amazonensis MHOM/BR/1989/166MJO promastigotes infected in mouse peritoneal macrophage assessed as inhibition of parasite growth measured for 24 hrs by MTT assay. In kind it is functional, organism-based. The conditions noted are these: Peritoneal macrophage cell.

On to `COc1ccc(C(=O)NC(=S)Nc2nc(-c3ccccc3)c(C)s2)cc1`, for which, in the series with Leishmania major [1], the half-maximal inhibitory concentration (IC50) came out at 84.8 µM.
On to `NC(=S)N/N=C(/C=C/c1cccnc1)c1cccc(NC(=O)Nc2ccc(Cl)cc2)c1`, for which the 50% inhibitory concentration (IC50) in series [2] stood at 3.81 µM.
Regarding `Cc1cc(O)c(C(=O)Nc2ccccc2)c(=O)n1Cc1ccc(F)cc1`, the values for the IC50 with Leishmania donovani [3] and in the series on Leishmania donovani [4] were 55 µM and 55.8 µM, respectively.
For the molecule `Cc1ccc2c(NCCCN(C)C(=O)c3cccc(/C=C/C(=O)c4ccc(C)o4)c3)ccnc2c1`, the IC50 in the series on Leishmania major [5] was 1.14 µM; in the series with Leishmania donovani [6], 1.08 µM.
Regarding `O=C(CCCc1cc2ccccc2[nH]1)Nc1nc2ccccc2c2ccccc12`, the concentration for a half-maximal effect (EC50) in the series on Leishmania infantum [7] came to 8.9 µM; in the series with Leishmania infantum [8], 8.53 µM. Moreover, the IC50 with HepG2 stood at 0.01 µM.
On to `O=C(/C=C/c1ccc(F)cc1)c1ccccc1Cl`, for which the CC50 at 48 h in series [9] came out at 479 µM. In the series on Leishmania infantum [10], this molecule returned an IC50 of 74.1 µM.
Turning to `NC(=O)N/N=C/c1ccc(Oc2no[n+]([O-])c2-c2ccccc2)cc1`, in the series on Leishmania infantum [11], the EC50 stood at 3.6 µM. Besides, the Activity in the series with Leishmania infantum [12] and in the series on Leishmania infantum [14] was 90% throughout. Moreover, the 50% cytotoxic concentration (CC50) at 24 h in [13] is 500 µM.
As to `COc1ccc(Br)cc1CN(C)C12CC3CC(CC(C3)C1)C2`, the CC50 at 48 h in series [15] came out at 63.7 µM. The Activity with Leishmania infantum [16] came to 59%. Further, the IC50 in the series on Leishmania infantum [17] was 0.32 µM.
As to `O=C(N/N=C\c1ccc([N+](=O)[O-])o1)c1ccc(OS(=O)(=O)c2cccnc2)cc1`, the half-inhibitory concentration (IC50) in [18] was 3.26 µM; in the series with Leishmania donovani [19], 0.09 µM; with Leishmania donovani [20], 0.09 µM; in the series with Leishmania donovani [21], 0.09 µM; with Leishmania tropica, 0.04 µM.
In the case of `COc1cc(OC)c(C(=O)/C=C/c2cccc(C)c2)c([N+](=O)[O-])c1`, the EC50 in the series with Leishmania amazonensis [22] was determined as 0.42 µM; with Leishmania braziliensis it was 1.45 µM.
Turning to `O=C(CCc1ccc(O)c(O)c1)O[C@H](Cc1ccc(O)cc1)C(=O)O`, the IC50 in the series with Leishmania amazonensis [23] amounted to 19 µM.
`Cc1ccc(Cn2cc(COC3=CC(=O)c4ccccc4C3=O)nn2)cc1`: the half-maximal inhibitory concentration (IC50) is 0.81 µM with Leishmania donovani [24] and 1.48 µM in the series with Leishmania major [25]. The selectivity ratio in series [26] was more than 55.
As to `O=C(N/N=C1\C(=O)N(CC(O)COc2cc(=O)oc3ccccc23)c2ccccc21)c1ccncc1` (stereo unspecified), in the series with Leishmania infantum [27], the IC50 was determined as 0.03 µM.
Consider `COc1cc(C(=O)/C=C/c2ccc([N+](=O)[O-])cc2)c(C(C)=O)c2c(OC)cccc12`, for which the half-maximal inhibitory concentration (IC50) in the series on Leishmania amazonensis [28] amounted to 18.5 µM.
